The series concerns dogs with occluded anterior descending coronary artery. The experiment in a line: Effect of intravenously administered pralmorelin on cardiac function of dog with anterior descending coronary artery occlusion. Format: in vivo. The following applies: 100 μg/kg i.v. As to the method: [Test Example 3] Effect of Intravenously Administered Pralmorelin on the Cardiac Function of Dog with a Model of Anterior Descending Coronary Artery Occlusion
Using a dog model of acute contractile dysfunction caused by occlusion of the anterior descending coronary artery, the inventors studied the cardiotonic action of pralmorelin.
The action of pralmorelin on the cardiac dysfunction deteriorated by occlusion of the coronary artery was evaluated by various hemodynamic parameters, cardiac output (CO), stroke volume (SV), maximal positive dP/dt of left ventricular pressure (+dP/dtmax), ejection fraction (EF), mean blood pressure (MBP), heart rate (HR), total peripheral resistance (TPR) and double product (RPP) as an index of myocardial oxygen consumption. • 1. Test Materials and Method • 1) Test Substance and Reagents • (1) Control
Pralmorelin dihydrochloride (hereunder referred to as KP-102) (prepared by the method described in WO 9304081) was dissolved in distilled water to prepare a 0.5 mg/mL solution. • (3) Reagents
In the experiment, adult beagles of either sex (weighing 9-11 kg) purchased from Nihon Nosan Kogyo K.K. (Kanagawa, Japan) were used. After arrival, the animals were allowed to eat a solid meal (CD-5, CLEA Japan, Inc. or Labo D Stock, Nark Corp.) and drink water in a room at a temperature of 20±2° C. and at a humidity of 55±15% under illumination for 12 hours a day (from 7:00 to 19:00); the animals were kept under these conditions for at least one week before use. • 3) Method of Measurement
Anesthesia was introduced by intravenous administration of pentobarbital (30 mg/kg) and in order to maintain anesthesia, pentobarbital (5-6 mg/kg/hr) was injected continuously by means of an infusion pump (FP-W-100, Toyo Sangyo) through a polyethylene cannula retained in the right cephalic vein. The endotracheal cannula was inserted and the chest was opened at the left fourth intercostal space under artificial respiration in a tidal volume of 20 mL/kg at a rate of 18 breaths/min with an artificial respirator (SN-480-3 of Shinano Seisakusho). The left anterior descending coronary artery was carefully detached from the site of origin over a length of 1-2 cm and an occluding thread was passed through.
The chest was opened at the left fifth intercostal space and a 5-segment conductance catheter (CCS-108-DA, Unique Medical) was inserted from the cardiac apex so that all electrodes would be placed in the left ventricle. A catheter equipped with a 5 Fr microtip pressure transducer (pressure transducer catheter, Model MPC-500, MILLAR) was inserted into the left ventricle through the left carotid artery. The conductance catheter and the pressure transducer catheter inserted into the left ventricle were connected to a built-in amplifier in a ventricular volume-measuring instrument (Integral 3; VPR-1002, Unique Medical) and the changes in the left ventricular pressure (LVP) and the volume of the left ventricle were measured simultaneously. To determine the mean blood pressure (MBP), blood pressure was measured via a blood pressure amplifier (AP641G, Nihon Kohden) from the 5 Fr pressure transducer catheter inserted into the left femoral artery. Heart rate (HR) was measured with a cardiotachometer (AT-601G, Nihon Kohden) from the pulse waves of blood pressure.
The chest was opened again at the fourth intercostal space and in order to measure the cardiac output (CO(EMF)) (CO as determined by an electromagnetic blood flowmeter based method), a probe connected to an electromagnetic blood flowmeter (MFV-2100, Nihon Kohden) was fitted at the site of origin of the aorta. A spiral electrode was put in the ischemic region that occurred due to the occlusion of coronary artery and a surface electrocardiogram was recorded. A Doppler probe was fitted on the left anterior descending coronary artery and the blood flow was determined with a Doppler blood flowmeter (PD-20, Crystal Biotech). […]

Where a SMILES comes first, the peptide text is derived from it. [ ]: non-standard residue; d: D form. d2Nal = N[C@H](Cc1ccc2ccccc2c1)C(=O)O

Consider 1 molecule from patent publication US6878689B2, “Preventives or remedies for heart failure” (Kaken Pharmaceutical Co., Ltd., priority 2000, dated 2005).

Turning to `C[C@H](NC(=O)[C@@H](Cc1ccc2ccccc2c1)NC(=O)[C@@H](C)N)C(=O)N[C@@H](Cc1c[nH]c2ccccc12)C(=O)N[C@H](Cc1ccccc1)C(=O)N[C@@H](CCCCN)C(N)=O` [KP-102, D-alanyl-3-(naphthalen-2-yl)-D-alanyl-L-alanyl-L-tryptophyl-D-phenylalanyl-L-lysinamide] (H-[dA][d2Nal]AW[dF]K-NH2), the “change in LVEDP” value was “Neither of the control and KP-102 groups showed changes in LVPsys and LVEDP”; the “change in LVPsys” value is “Neither of the control and KP-102 groups showed changes in LVPsys and LVEDP”; the “change in double product (RPP), index of myocardial oxygen consumption” value is “Neither group experienced a change in RPP”; the “change in heart rate (HR)” value is “Neither of MBP and HR changed”. Moreover, the “change in mean blood pressure (MBP)” value was “Neither of MBP and HR changed”; the “change in −dP/dtmax in comparison with control group” value was “no significant change”. The “increase in stroke volume (SV) from baseline before administration” value (5 minutes after the administration, n=5, p<0.05 vs control) is given as 5%. For the same molecule, the “maximum increase in cardiac output (CO) from baseline before administration” value (10 minutes after the administration, n=5, p<0.05 vs control) stood at 7%. The “increase in +dP/dtmax from baseline before administration” value (10 minutes after the administration, p<0.05 vs control for first 20 minutes) was 7%. Besides, the “maximal increase in ejection fraction (EF)” value (in 10 minutes, significant vs control) was found to be 10%. For the same molecule, the “change in total peripheral resistance (TPR)” value (p<0.05 vs control) is “dropped following the administration”.
